# Data: paper PMC3063124 (The Journal of neuroscience : the official journal of the …, 2011)
# Values joined by “and” are separate entries in the source; they are usually repeats but may differ in a detail not shown here. Equal values may be shown once. Marks after values point to notes of the source that are not given here.
# Key:
# GluN1/GluN2D K779Y [1] = molecular target: GluN1/GluN2D K779Y (Rattus norvegicus, UniProt Q62645, K779Y); experiment: Two-electrode voltage-clamp recordings, mutant receptor in Xenopus oocytes; format: cell-based; settings: fold shift relative to GluN2D
# GluN1/GluN2D K779Y [2] = molecular target: GluN1/GluN2D K779Y (Rattus norvegicus, UniProt P35439+Q62645, K779Y); experiment: as above; format: cell-based
# GluN1/GluN2D M726A [3] = molecular target: GluN1/GluN2D M726A (Rattus norvegicus, UniProt P35439+Q62645, M726A); experiment: as above; format: cell-based
# GluN1/GluN2D M726A [4] = molecular target: GluN1/GluN2D M726A (Rattus norvegicus, UniProt Q62645, M726A); experiment: as above; format: cell-based
# GluN1/2A-(2D S1) chimera = GluN1/2A-(2D S1) chimera (Rattus norvegicus, UniProt Q00959+Q62645); experiment: Two-electrode voltage-clamp recordings, chimeric receptor in Xenopus oocytes; format: cell-based
# [5] = molecular target: GluN1/2A-(2D S1+S2) chimera (Rattus norvegicus, UniProt Q00959+Q62645); experiment: as above; format: cell-based
# GluN1/GluN2D QEQY/HDYS [6] = molecular target: GluN1/GluN2D QEQY/HDYS (Rattus norvegicus, UniProt P35439+Q62645, E700D/Q699H/Q701Y/Y702S); experiment: Two-electrode voltage-clamp recordings, mutant receptor in Xenopus oocytes; format: cell-based
# GluN1/GluN2D QEQY/HDYS [7] = molecular target: GluN1/GluN2D QEQY/HDYS (Rattus norvegicus, UniProt Q62645, E700D/Q699H/Q701Y/Y702S); experiment: as above; format: cell-based
# GluN1/GluN2D L705F [8] = molecular target: GluN1/GluN2D L705F (Rattus norvegicus, UniProt P35439+Q62645, L705F); experiment: as above; format: cell-based
# GluN1/GluN2D L705F [9] = molecular target: GluN1/GluN2D L705F (Rattus norvegicus, UniProt Q62645, L705F); experiment: as above; format: cell-based
# GluN1/GluN2D = GluN1/GluN2D (Rattus norvegicus, UniProt Q62645); format: cell-based
# GluN1/GluN2B = GluN1/GluN2B (Rattus norvegicus, UniProt Q00960); format: cell-based
# Sequence of GluN1/GluN2B (Q00960 27-1482, other chains not shown): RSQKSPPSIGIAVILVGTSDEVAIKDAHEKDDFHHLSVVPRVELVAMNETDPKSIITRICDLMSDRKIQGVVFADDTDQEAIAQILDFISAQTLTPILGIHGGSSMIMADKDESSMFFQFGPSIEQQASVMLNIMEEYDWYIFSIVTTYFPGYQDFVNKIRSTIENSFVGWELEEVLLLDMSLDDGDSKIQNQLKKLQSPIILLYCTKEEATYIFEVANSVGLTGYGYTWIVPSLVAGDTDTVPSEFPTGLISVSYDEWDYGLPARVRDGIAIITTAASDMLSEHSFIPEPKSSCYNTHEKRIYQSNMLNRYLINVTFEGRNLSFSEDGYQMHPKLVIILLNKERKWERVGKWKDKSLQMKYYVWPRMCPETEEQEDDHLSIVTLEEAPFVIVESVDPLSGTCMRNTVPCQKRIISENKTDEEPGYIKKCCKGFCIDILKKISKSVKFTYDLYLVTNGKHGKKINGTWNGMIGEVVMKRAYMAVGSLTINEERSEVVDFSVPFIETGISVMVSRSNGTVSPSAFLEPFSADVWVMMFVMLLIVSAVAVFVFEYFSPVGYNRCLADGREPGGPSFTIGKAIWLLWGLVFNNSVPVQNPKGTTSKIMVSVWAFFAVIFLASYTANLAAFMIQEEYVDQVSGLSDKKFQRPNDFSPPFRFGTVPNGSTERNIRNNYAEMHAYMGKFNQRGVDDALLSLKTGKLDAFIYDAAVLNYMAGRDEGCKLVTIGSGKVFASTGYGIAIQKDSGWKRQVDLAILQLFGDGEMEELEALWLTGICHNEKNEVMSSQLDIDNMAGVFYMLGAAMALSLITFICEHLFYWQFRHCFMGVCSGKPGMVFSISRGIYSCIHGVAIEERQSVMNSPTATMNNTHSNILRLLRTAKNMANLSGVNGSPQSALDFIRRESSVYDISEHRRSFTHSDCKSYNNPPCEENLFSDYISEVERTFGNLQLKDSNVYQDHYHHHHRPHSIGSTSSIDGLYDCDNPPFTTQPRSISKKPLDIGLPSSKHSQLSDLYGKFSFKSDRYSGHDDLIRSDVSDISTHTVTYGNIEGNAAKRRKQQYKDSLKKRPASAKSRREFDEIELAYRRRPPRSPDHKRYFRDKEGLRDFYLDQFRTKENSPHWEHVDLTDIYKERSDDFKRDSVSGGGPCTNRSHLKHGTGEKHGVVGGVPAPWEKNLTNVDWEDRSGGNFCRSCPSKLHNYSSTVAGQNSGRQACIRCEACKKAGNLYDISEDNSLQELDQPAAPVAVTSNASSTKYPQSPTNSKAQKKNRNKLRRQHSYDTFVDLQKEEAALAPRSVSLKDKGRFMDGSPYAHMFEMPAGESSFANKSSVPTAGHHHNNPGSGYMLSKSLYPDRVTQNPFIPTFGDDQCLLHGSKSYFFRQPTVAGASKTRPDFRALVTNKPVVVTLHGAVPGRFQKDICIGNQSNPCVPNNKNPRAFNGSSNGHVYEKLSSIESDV
# [10] = molecular target: GluN1/GluN2A HDYS/QEQY + F680L + Y754K (Rattus norvegicus, UniProt Q00959, D675E/F680L/H674Q/S677Y/Y676Q/Y754K); experiment: Two-electrode voltage-clamp recordings, mutant receptor in Xenopus oocytes; format: cell-based
# [11] = molecular target: GluN1/GluN2A HDYS/QEQY + F680L + Y754K (Rattus norvegicus, UniProt P35439+Q00959, D675E/F680L/H674Q/S677Y/Y676Q/Y754K); experiment: as above; format: cell-based
# GluN1/2A-(2D S2) chimera = GluN1/2A-(2D S2) chimera (Rattus norvegicus, UniProt Q00959+Q62645); experiment: Two-electrode voltage-clamp recordings, chimeric receptor in Xenopus oocytes; format: cell-based
# GluN1/GluN2A = GluN1/GluN2A (Rattus norvegicus, UniProt Q00959); format: cell-based
# GluN1/GluN2D Q701Y [12] = molecular target: GluN1/GluN2D Q701Y (Rattus norvegicus, UniProt P35439+Q62645, Q701Y); experiment: Two-electrode voltage-clamp recordings, mutant receptor in Xenopus oocytes; format: cell-based
# GluN1/GluN2D Q701Y [13] = molecular target: GluN1/GluN2D Q701Y (Rattus norvegicus, UniProt Q62645, Q701Y); experiment: as above; format: cell-based
# [14] = extracellular oocyte recording solution; ref Mosley et al., 2010; cited from earlier work
# [15] = molecular target: GluN1/GluN2D QEQY/HDYS + L705F + K779Y (Rattus norvegicus, UniProt P35439+Q62645, E700D/K779Y/L705F/Q699H/Q701Y/Y702S); experiment: Two-electrode voltage-clamp recordings, mutant receptor in Xenopus oocytes; format: cell-based
# [16] = molecular target: GluN1/GluN2D QEQY/HDYS + L705F + K779Y (Rattus norvegicus, UniProt Q62645, E700D/K779Y/L705F/Q699H/Q701Y/Y702S); experiment: as above; format: cell-based
# GluN1/GluN2C = GluN1/GluN2C (Rattus norvegicus, UniProt Q00961); format: cell-based
# Sequence of GluN1/GluN2C (Q00961 20-1237, other chains not shown): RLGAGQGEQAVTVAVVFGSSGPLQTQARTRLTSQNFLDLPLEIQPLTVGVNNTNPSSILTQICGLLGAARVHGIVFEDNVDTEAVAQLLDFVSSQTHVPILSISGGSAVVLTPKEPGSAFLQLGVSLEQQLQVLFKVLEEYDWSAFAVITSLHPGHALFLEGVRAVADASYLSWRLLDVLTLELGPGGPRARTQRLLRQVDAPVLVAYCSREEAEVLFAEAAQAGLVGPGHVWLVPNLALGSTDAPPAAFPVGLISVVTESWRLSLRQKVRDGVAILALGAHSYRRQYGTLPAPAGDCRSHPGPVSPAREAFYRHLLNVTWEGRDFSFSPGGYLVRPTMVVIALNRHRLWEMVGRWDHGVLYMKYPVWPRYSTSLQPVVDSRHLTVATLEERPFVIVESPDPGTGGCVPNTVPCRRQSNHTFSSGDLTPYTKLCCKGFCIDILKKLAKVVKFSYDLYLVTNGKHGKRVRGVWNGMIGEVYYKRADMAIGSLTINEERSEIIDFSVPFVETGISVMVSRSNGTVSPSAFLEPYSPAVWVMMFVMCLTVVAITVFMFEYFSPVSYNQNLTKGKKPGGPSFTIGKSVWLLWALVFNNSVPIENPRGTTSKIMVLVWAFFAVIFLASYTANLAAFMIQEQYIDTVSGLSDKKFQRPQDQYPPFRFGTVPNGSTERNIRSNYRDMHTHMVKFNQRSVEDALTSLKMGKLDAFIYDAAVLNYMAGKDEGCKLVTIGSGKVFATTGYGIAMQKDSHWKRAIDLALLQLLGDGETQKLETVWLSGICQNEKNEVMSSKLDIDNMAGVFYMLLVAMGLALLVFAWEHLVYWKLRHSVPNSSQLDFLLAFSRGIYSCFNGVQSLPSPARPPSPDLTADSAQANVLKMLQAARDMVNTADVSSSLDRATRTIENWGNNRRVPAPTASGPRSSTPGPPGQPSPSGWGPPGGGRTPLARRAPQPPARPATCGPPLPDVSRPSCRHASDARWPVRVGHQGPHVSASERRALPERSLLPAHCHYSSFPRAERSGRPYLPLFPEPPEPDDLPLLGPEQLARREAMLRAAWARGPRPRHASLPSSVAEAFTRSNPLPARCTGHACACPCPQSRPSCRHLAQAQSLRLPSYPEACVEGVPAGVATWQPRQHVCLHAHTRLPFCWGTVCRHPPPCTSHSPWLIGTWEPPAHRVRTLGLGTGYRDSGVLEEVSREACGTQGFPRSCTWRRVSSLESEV
# GluN1/GluN2D A752V [17] = molecular target: GluN1/GluN2D A752V (Rattus norvegicus, UniProt Q62645, A752V); experiment: Two-electrode voltage-clamp recordings, mutant receptor in Xenopus oocytes; format: cell-based
# GluN1/GluN2D A752V [18] = molecular target: GluN1/GluN2D A752V (Rattus norvegicus, UniProt P35439+Q62645, A752V); experiment: as above; format: cell-based
# [19] = fixed during fitting to the Hill equation
# [20] = fold shift relative to GluN1/GluN2D
structure (smiles),measurement,setting,value
"COc1ccc2nc(/C=C/c3cccc([N+](=O)[O-])c3)n(-c3ccc(C(=O)O)cc3)c(=O)c2c1 [QNZ46, (E)-4-(6-methoxy-2-(3-nitrostyryl)-4-oxoquinazolin-3(4H)-yl)-benzoic acid]",Relative IC50 (IC50 2X / IC50 2D),GluN1/GluN2D K779Y [1],4.9
same,IC50,GluN1/GluN2D K779Y [2],19 ± 2 µM
same,IC50,GluN1/GluN2D M726A [3],0.5 ± 0.02 µM
same,nH (Hill slope),GluN1/GluN2D M726A [4],1.1
same,Relative IC50 (IC50 2X / IC50 2D),GluN1/GluN2D M726A [4]; fold shift relative to GluN2D,0.1
same,nH (Hill slope),GluN1/2A-(2D S1) chimera; [19],1.0 ^a
same,Relative IC50 (IC50 2X / IC50 2D),GluN1/2A-(2D S1) chimera; fold shift relative to GluN2D,23
same,nH (Hill slope),[5],1.1
same,Relative IC50 (IC50 2X / IC50 2D),[5]; fold shift relative to GluN2D,1.2
same,IC50,GluN1/GluN2D QEQY/HDYS [6],10 ± 1 µM
same,nH (Hill slope),GluN1/GluN2D QEQY/HDYS [7],1.0
same,Relative IC50 (IC50 2X / IC50 2D),GluN1/GluN2D QEQY/HDYS [7]; fold shift relative to GluN2D,2.6
same,IC50,GluN1/GluN2D L705F [8],23 ± 2 µM
same,nH (Hill slope),GluN1/GluN2D L705F [9],1.1
same,Relative IC50 (IC50 2X / IC50 2D),GluN1/GluN2D L705F [9]; fold shift relative to GluN2D,5.9
same,nH (Hill slope),GluN1/GluN2D,1.1
same,selectivity for GluN2C- and GluN2D-containing receptors over receptors containing GluN2A or GluN2B,GluN1/GluN2D,~ 50 fold
same,Relative IC50 (IC50 2X / IC50 2D),GluN1/GluN2D; [20],1.0
same,difference in QNZ46 IC50 values between GluN2A- and GluN2D-containing receptors,"GluN1/GluN2D; rat, xenopus oocytes",~ 50 fold and 50 fold
same,nH (Hill slope),GluN1/GluN2B; [19],1.0 ^a
same,Relative IC50 (IC50 2X / IC50 2D),GluN1/GluN2B; [20],49
same,nH (Hill slope),[10],1.2
same,Relative IC50 (IC50 2X / IC50 2D),[10]; fold shift relative to GluN2D,4.4
same,IC50,[11],17 ± 1 µM
same,nH (Hill slope),GluN1/2A-(2D S2) chimera,1.1
same,Relative IC50 (IC50 2X / IC50 2D),GluN1/2A-(2D S2) chimera; fold shift relative to GluN2D,1.2
same,nH (Hill slope),GluN1/GluN2A; [19],1.0 ^a
same,Relative IC50 (IC50 2X / IC50 2D),GluN1/GluN2A; [20],47
same,IC50,GluN1/GluN2D Q701Y [12],7.7 ± 0.7 µM
same,nH (Hill slope),GluN1/GluN2D Q701Y [13],1.0
same,Relative IC50 (IC50 2X / IC50 2D),GluN1/GluN2D Q701Y [13]; fold shift relative to GluN2D,2.0
same,maximum solubility,[14],70 µM
same,IC50,[15],15 ± 1 µM
same,nH (Hill slope),[16],1.0
same,Relative IC50 (IC50 2X / IC50 2D),[16]; fold shift relative to GluN2D,3.8
same,nH (Hill slope),GluN1/GluN2C,1.0
same,Relative IC50 (IC50 2X / IC50 2D),GluN1/GluN2C; [20],1.8
same,nH (Hill slope),GluN1/GluN2D A752V [17],1.0
same,Relative IC50 (IC50 2X / IC50 2D),GluN1/GluN2D A752V [17]; fold shift relative to GluN2D,4.1
same,IC50,GluN1/GluN2D A752V [18],16 ± 1 µM
